Values of other authors in paper PMC8374649, “IBI362 (LY3305677), a weekly-dose GLP-1 and glucagon receptor dual agonist, in Chinese adults with overweight or obesity: A randomised, placebo-controlled, multiple ascending dose phase 1b study” (EClinicalMedicine, 2021).

Experiments:
[1] = system: Japanese adults with type 2 diabetes; conditions: once-daily, 48-day phase 2a study; cited from earlier work
Source text: Despite the weight loss effect of glucagon, its inherited stimulation of gluconeogenesis and glycogenolysis requires optimal balancing of GLP-1 and glucagon receptor activities for dual agonists. […] IBI362 has b ...

[2] = system: patients with type 2 diabetes; conditions: 12-week administration; cited from earlier work
Source text: A remarkable and unexpected finding of this study was the statistically significant reduction in serum uric acid levels in participants receiving IBI362. BMI is strongly positively correlated with serum uric acid levels, and weight loss is a commonly recommended treatment for gout, a disease resulting from chronic elevation of serum uric acid, [29], [30]. Although GLP-1 receptor agonists promote weight loss, direct evidence regarding the relationship between GLP-1 receptor agonists and blood uric acid level is limited.

## Cotadutide
[1]
  Weight loss and glycaemic control: optimal weight loss and glycaemic control

## liraglutide (HAEGTFTSDVSSYLEGQAAKEFIAWLVRGRG; chains of the INN, looked up) [GLP-1 receptor agonist]
[2]
  Plasma uric acid levels compared with placebo: did not reduce plasma uric acid levels
